From article PMC8322648, “Brevibacillin 2V Exerts Its Bactericidal Activity via Binding to Lipid II and Permeabilizing Cellular Membranes” (Frontiers in Microbiology, 2021)

Legend:
[1] = test system: S. aureus ATCC15975 (MRSA); assay: Time-killing assay; type: cell-based, Staphylococcus aureus; settings: for killing kinetics / capacity, in words: 10 × MIC (brevibacillins 20 μg/ml; nisin 40 μg/ml)
Experimental: This assay was performed according to a previously described procedure ([Ling et al., 2015]; [Zhao et al., 2020b]). An overnight culture of cells [S. aureus ATCC15975 (MRSA)] was diluted 50-fold in MHB and incubated at 37°C with aeration at 220 rpm. Bacteria were grown to an OD600 of 0.5, and then, the concentration of cells was adjusted to ≈ 5 × 10^6 cells per ml. Bacteria were then challenged with nisin (40 μg/ml), brevibacillin (20 μg/ml), brevibacillin V (20 μg/ml), brevibacillin I (20 μg/ml), or brevibacillin 2V (20 μg/ml) in culture tubes at 37°C and 220 rpm (peptides at 10 × MIC, a desirable concentration at the site of infection). Bacteria not treated with peptides were used as negative controls. At desired time points, 200 μl aliquots were taken, centrifuged at 8,000 g for 2 min, and resuspended in 200 μl of MHB. 10-fold serially diluted samples were plated on MHA plates. After incubated at 37°C overnight, colonies were counted and c.f.u. per ml was calculated. Each experiment was performed in triplicate.

[2] = Isothermal titration calorimetry; type: binding; settings: Figure 5; DOPC LUVs with 2 mol % Lipid II titrated into 50 μM peptide, 10 mM Tris-HCl, 100 mM NaCl, pH 8, 25°C
Experimental: LUVs containing Lipid II (2%, mol/mol) were prepared by mixing the appropriate volumes of Lipid II and DOPC stock solutions in CHCl3/MeOH (2:1, v/v). The lipid solutions were dried by a nitrogen stream and hydrated with 10 mm Tris-HCl, 100 mm NaCl, and pH 8 buffer to a lipid-phosphate concentration of ~ 20 mm. LUVs were obtained after 10 times freeze-thaw cycles followed by 10 rounds of extrusion through 200 nm membrane filters (Whatman Nuclepore, Track-Etch Membranes). The concentration of lipid-phosphate was determined as described ([Rouser et al., 1970]).
Isothermal titration calorimetry was performed with the Low Volume Nano ITC (Waters LLC, New Castle, DE, United States) to determine the interaction between LUVs and brevibacillins. Brevibacillins were diluted in a buffer (10 mm Tris-HCl, 100 mm NaCl, and pH 8) to a final concentration of 50 μm. Samples were degassed before use. The chamber was filled with 177 μl of the brevibacillins solutions, and the LUVs were titrated into the chamber at a rate of 2 μl/300 s with a stirring rate of 300 rpm. Experiments were performed at 25°C. Control experiments were performed with Lipid II-free LUVs. The Kd values of brevibacillins to Lipid II were calculated using the Nano Analyze Software (Waters LLC).

[3] = Carboxyfluorescein leakage assay, DOPC LUVs with 0.1% Lipid II; settings: peptide 100 nM; for membrane permeabilization (CF leakage), Lipid II containing LUVs: LUVs 5 μM, DOPC plus 0.1% Lipid II, 25 mM Tris-HCl, 150 mM NaCl, pH 7.5, ex 492/em 515 nm
Experimental: LUVs that contain DOPC or DOPC plus 0.1% Lipid II were prepared for a carboxyfluorescein (CF) leakage assay. The lipids were dried by a nitrogen stream and followed under vacuum for 2 h. After that, the lipids were hydrated by adding 25 mm Tris-HCl, 150 mm NaCl, and pH 7.5 containing 50 mm CF. The suspensions were frozen and thawed 10 times, followed by extrusion through 200nm membrane filters (Whatman Nuclepore, Track-Etch Membranes) 10 times. The excess dye was removed by loading vesicles on a spin column (Sephadex G50) for 2 min at 500 × g. Subsequently, the vesicles were diluted to 5 μm, and the brevibacillins-induced release of CF from the vesicles was monitored by measuring the increase in fluorescence intensity. The maximum fluorescence was reached by adding 10 μl of 20% Triton X-100. A Cary Eclipse Fluorescence Spectrophotometer (Agilent, United States) was used to determine the changes of fluorescence signals, and the excitation wavelength and emission wavelength were adjusted to 492 nm and 515 nm, respectively.

S. aureus (MRSA) = assay: Membrane permeability assay, concentration series (fluorescence microscopy); type: cell-based, Staphylococcus aureus; settings: 15 min; for concentration needed to permeabilize virtually all cellular membranes: comparison of brevibacillin and brevibacillin 2V
Experimental: Staphylococcus aureus ATCC15975 (MRSA) was grown to an OD600 of 0.8. The culture was pelleted at 5,000 × g for 5 min and washed three times in 10 mm HEPES with 10 mm glucose (pH 7.2). After normalization of the cell density to an OD600 of 0.2 in 10 mm HEPES with 10 mm glucose (pH 7.2), a 2-fold MIC concentration of brevibacillins (4 μg/ml) or nisin (8 μg/ml) was added. At the same time, SYTO® 9 and propidium iodide (LIVE/DEAD Baclight Bacterial Viability Kit, Invitrogen) were added to the above cell suspensions. After incubation at room temperature for 15 min, peptides were removed and washed three times with 10 mm HEPES with 10 mm glucose (pH 7.2). Then, the cell suspensions were loaded on 1.5% agarose pads and analyzed by DeltaVision Elite microscope (Applied Precision; [Zhao and Kuipers, 2021]).
GraphPad Prism 7.0 was used to fit the data of time-killing assay, DiSC3(5) assay, fluorescence quenching assay, ITC assay, and CF Leakage assay in Figures 3–7. The fluorescence images (ratio of membrane permeabilized cells) were quantified by the software Adobe Photoshop 2021. The Kd values of brevibacillins to Lipid II were calculated using the Nano Analyze Software (Waters LLC). The statistical significance of the data was assessed using Duncan’s multiple range test with the software SPSS Statistics 26; values of p < 0.05 were considered to be statistically significant.
Figure 7 Brevibacillins disrupt membrane permeability without the need for Lipid II binding. (A), Cartoon schematic of the assay used to assess membrane permeability disruption of brevibacillins. (B), CF releases (%) vs. time graph showing the effects of adding brevibacillins to DOPC-LUVs with 0.1% Lipid II; peptide concentrations were 100 nm; a, when peptides were added; and b, when 20% Triton X-100 added. (C), CF releases (%) vs. time graph showing the effects of adding brevibacillins to LUVs of pure DOPC; peptide concentrations were 100 nm; a, when peptides were added; and b, when 20% Triton X-100 was added. (D), fluorescence microscopic images of S. aureus (MRSA) after have been treated by a series concentrations of brevibacillins and nisin for 15 min. (E), the ratio of membrane permeabilized cells that was quantified by Adobe Photoshop 2021; the data are representative of three independent experiments.
To investigate the in vivo membrane disruption capacity of brevibacillin and brevibacillin 2V, a membrane permeability assay was performed with a series of concentrations of antibiotics. Nisin was used as a control.

[4] = ref Zhao et al., 2021; cited from earlier work

Row | Substance | killing kinetics / capacity, in words ([1]; MHB, 37°C) | bactericidal or bacteriostatic action ([1]; S. aureus (MRSA), 10 × MIC) | Kd [2] | membrane permeabilization (CF leakage), Lipid II containing LUVs [3] | membrane permeabilization at 100 nM (S. aureus (MRSA); 100 nM, versus untreated group) | concentration needed to permeabilize virtually all cellular membranes (S. aureus (MRSA)) | stability in human plasma [4] | time to complete killing of all cells ([1]; 10 × MIC (nisin 40 μg/ml; brevibacillins 20 μg/ml), ≈ 5 × 10^6 cells per ml, MHB, 37°C, 220 rpm, triplicate) | percentage of CF leakage, comparison in words ([3]; LUVs with 0.1% Lipid II) | membrane permeabilization capacity, comparison (S. aureus (MRSA); 100 nM and 400 nM, ratio of membrane permeabilized cells, three independent experiments, p < 0.05)
1 | Brevibacillin 2V | slowest killing capacity among brevibacillins, with similar killing kinetics as nisin | bactericidal antimicrobial agent | 7.89 µM | rapid membrane permeabilization | did not induce membrane permeabilization | a similar concentration of brevibacillin and brevibacillin 2V is needed | good stability in human plasma |  |  | 
2 | Brevibacillin | intermediate killing capacity |  | 0.869 µM | rapid membrane permeabilization |  | a similar concentration of brevibacillin and brevibacillin 2V is needed |  | ≤ 2 h | higher percentage of CF leakage than brevibacillin 2V | significantly (p < 0.05) higher membrane permeabilization capacity than brevibacillin 2V
